Assay results taken from patent US12070445B2, “System and assay for monitoring production/release of membrane-lytic toxins in bacteria and compounds for modulating same” (priority 2021, dated 2024).
Entries after “also recorded” stand apart in the source; their conditions may differ. Where a SMILES comes first, the peptide text is derived from it. Bridges are numbered along the chain shown (N, C = ends).

Columns and labels:
Format in all cases: cell-based
[1] = test system: WT P. aeruginosa (PAO1-PGSC); test: Microtiter plate (96-well) vesicle lysis assay with WT P. aeruginosa; settings: 10 μM OdDHL and PQS, 1 mM BHL, 200 μM 9
Protocol: (§1) Compound handling and preparation. OdDHL and BHL (Hodgkinson et al., 2011), S. aureus AIP and peptide derivatives 1-5 (Tal-Gan et al., 2013, Tal-Gan et al., 2016, Vasquez and Blackwell, 2019), and compounds 7-9 (Welsh and Blackwell, 2016a, Boursier et al., 2018, Manson et al., 2020) were synthesized using previously described methods. PQS and compound 6 were purchased from Millipore Sigma and AK Scientific respectively. Compounds were stored dry at −20° C. until needed and then dissolved in DMSO. DMSO stock solutions were prepared at concentrations that varied with compound potency and apparent solubility. Final in-well compound concentrations for 96-well vesicle lysis assays, unless noted otherwise, were: 10 μM for AIP, OdDHL, and PQS; 1 mM for BHL; 100 nM for 1-4; 10 μM for 5; 20 μM for 6; 100 μM for 7 and 8; and 200 μM for 9.
(§2) Production of phospholipid vesicles with encapsulated calcein. Large unilamellar vesicles (LUVs) were produced by adapting a freeze-thaw and vesicle extrusion procedure (Mayer et al., 1986). Briefly, stock solutions of phospholipids (DOPC, DPPC, DPPE, or cholesterol) in chloroform were mixed to the desired lipid compositions (70 mol % DOPC/30 mol % cholesterol for S. aureus vesicles or 68 mol % DPPC, 30 mol % cholesterol, 2 mol % DPPE for P. aeruginosa vesicles), and the chloroform was removed using an N2 stream or rotary evaporation followed by drying for at least one hour under vacuum. Self-quenching solutions of calcein were prepared by combining calcein and PBS or a specially prepared calcein buffer (1 mM EDTA, 10 mM Trisbase, and 100 mM NaCl; pH 8) to a calcein concentration of […]. The resulting solutions were titrated with 10 M aqueous NaOH until all calcein was dissolved and the solution reached pH 7.4 or pH 8 for PBS and the calcein buffer, respectively. The resulting calcein solutions were added to the dried phospholipid films (PBS for S. aureus formulations and the calcein buffer for the P. aeruginosa formulations) for a final lipid concentration of 5 mg/mL. The resulting lipid solutions were vortexed vigorously and briefly sonicated in a bath sonicator to form a turbid vesicle suspension. The vesicle suspensions were then freeze-thawed five times by alternately immersing them into an iPrOH/dry ice bath and a warm water bath (˜60° C.). Vesicles prepared for continuous time-course experiments were passed at least 5 times through a 100 nm polycarbonate filter using a Mini-prep extruder. Vesicles prepared for the high-throughput screen were passed through the filter 3 times. The resulting vesicles were then separated from external, unloaded calcein using a hand-packed Sephadex-G50 size exclusion chromatography column. The concentration of phospholipid in the solution was quantified using ^31P NMR (per the above protocol), and the phospholipid concentration was adjusted to 2 mM for unsaturated lipid solutions and 1 mM for saturated lipid solutions in their respective buffers. The resulting vesicles were characterized by dynamic light scattering and found to have a hydrodynamic diameter of ˜150 nm (FIGS. 3A-3C), which agrees with previous reports describing vesicle production using a similar method (Lapinski et al., 2007).
Microtiter plate vesicle lysis assays. Portions of media (2 or 10 mL) were inoculated with individual bacterial colonies and allowed to shake overnight. […]

WT S. aureus (RN6390b) = test: Microtiter plate (96-well) vesicle lysis assay with WT S. aureus; settings: for calcein leakage with agr inhibitors at equivalent concentration: all compounds at 100 nM, 12 hr
Protocol: as §1, §2
Microtiter plate vesicle lysis assays. Portions of media (2 or 10 mL) were inoculated with individual bacterial colonies and allowed to shake overnight. From these overnight cultures, subcultures were prepared by diluting the cultures 1:50 (v/v) in fresh BHI for S. aureus or 1:100 (v/v) in fresh LB for P. aeruginosa. An aliquot of each subculture (178 μL) was added to 20 μL of vesicle suspension and 2 μL of compound solution (dissolved in DMSO at 100× working concentration) in a clear-bottomed, black 96-well microtiter plate (Corning 3904). For controls, DMSO (vehicle) or Triton X-100 (1% final concentration) was substituted for compound. […]

S. aureus = S. aureus growth (OD600); settings: S. aureus WT and QS mutant with vesicles, 12 hr
Protocol: Microtiter plate vesicle lysis assays. Portions of media (2 or 10 mL) were inoculated with individual bacterial colonies and allowed to shake overnight. From these overnight cultures, subcultures were prepared by diluting the cultures 1:50 (v/v) in fresh BHI for S. aureus or 1:100 (v/v) in fresh LB for P. aeruginosa. An aliquot of each subculture (178 μL) was added to 20 μL of vesicle suspension and 2 μL of compound solution (dissolved in DMSO at 100× working concentration) in a clear-bottomed, black 96-well microtiter plate (Corning 3904). For controls, DMSO (vehicle) or Triton X-100 (1% final concentration) was substituted for compound. Plate covers were coated with an aqueous solution of 0.05% Triton X-100 and 20% ethanol (Brewster, 2003) to prevent the accumulation of condensation. Plates were incubated in a Biotek Synergy 2 microplate reader running Gen5 1.05 software at 37° C. with shaking at the high-speed setting. Fluorescence (excitation 500 nm, emission 540 nm) and OD600 (absorbance at 600 nm) measurements were recorded every 15 minutes for 12 hours. All experiments were performed in technical triplicate in a single microtiter plate. Biological triplicates were then obtained over three days. GraphPad Prism software (v. 9) was used to generate curves and calculate standard error.
High-throughput screening and follow-up analysis protocols. Test compounds and positive control 1 were delivered in 2.5 nL aliquots of DMSO with an Echo 550 liquid handler (LabCyte Inc.) into black 384-well microtiter plates (Corning). All test compounds were tested at 10 μM; positive control 1 was tested at 250 nM. DMSO was used as a negative control. Overnight cultures (2 mL) of WT S. aureus (RN6390b) were grown at 37° C. with shaking at 200 rpm. These cultures were diluted 1:500 (v/v) in fresh BHI medium, at which point vesicle solutions were added to a final concentration of 1 mM phospholipid (as determined by ^31P NMR analyses). This vesicle-cell mixture was then added to the 384-well microtiter plates with a Multidrop 384 liquid-dispensing robot (Thermo Scientific) for a total volume of 50 μL per well. Plates were incubated statically for ˜24 hr at 37° C., at which point fluorescence (excitation 483, emission 530) and OD600 (absorbance at 600 nm) measurements were made using a CLARIOstarR Plus microtiter plate reader (BMG Labtech) running MARS data analysis software. Scatter plots were generated using the Collaborative Drug Discovery Vault informatics platform. […] Fluorescence (excitation 510, emission 544) and OD600 measurements were acquired with a PerkinElmer EnVision microtiter plate reader running Envision Manager software. […]

agr = agr YFP transcriptional reporter assay (S. aureus AH1677 with pDB59); settings: Staphylococcus aureus
Protocol: Bacterial strains and culture. All bacteria were grown at 37° C. with 200 rpm shaking unless otherwise specified. S. aureus and P. aeruginosa were grown in BHI medium and LB medium, respectively. S. aureus AH1677 (with an agr-YFP reporter plasmid) and P. aeruginosa PAO1-PGSC (with a plasI-LVAgfp reporter plasmid) were used as QS transcriptional reporters and grown with 10 μg/mL chloramphenicol and 300 μg/mL carbenicillin, respectively. All other strains were grown without supplemental antibiotic. S. aureus RN6390b and P. aeruginosa PAO1-PGSC were used as WT strains in vesicle lysis experiments, while S. aureus RN9222 and P. aeruginosa PAO-JG35 were used as QS mutants. RN9222 was grown without antibiotic as it was not used as a reporter strain (i.e., it served only as QS mutant).
High-throughput screening and follow-up analysis protocols. Test compounds and positive control 1 were delivered in 2.5 nL aliquots of DMSO with an Echo 550 liquid handler (LabCyte Inc.) into black 384-well microtiter plates (Corning). All test compounds were tested at 10 μM; positive control 1 was tested at 250 nM. DMSO was used as a negative control. Overnight cultures (2 mL) of WT S. aureus (RN6390b) were grown at 37° C. with shaking at 200 rpm. These cultures were diluted 1:500 (v/v) in fresh BHI medium, at which point vesicle solutions were added to a final concentration of 1 mM phospholipid (as determined by ^31P NMR analyses). This vesicle-cell mixture was then added to the 384-well microtiter plates with a Multidrop 384 liquid-dispensing robot (Thermo Scientific) for a total volume of 50 μL per well. Plates were incubated statically for ˜24 hr at 37° C., at which point fluorescence (excitation 483, emission 530) and OD600 (absorbance at 600 nm) measurements were made using a CLARIOstarR Plus microtiter plate reader (BMG Labtech) running MARS data analysis software. Scatter plots were generated using the Collaborative Drug Discovery Vault informatics platform. The dose-response experiment using the vesicle lysis assay was performed in a 384-well plate in technical duplicate with compound concentrations of 0.1, 0.25, 0.5, 1, 2.5, 5, 10, and 20 μM. Dose-response curves were generated using variable slope (4 parameter) non-linear regression analysis for compound inhibition using GraphPad Prism software (v. 9). Analysis of the QS modulatory activity of the HTS hits and 6 (savirin) was performed using the S. aureus YFP transcriptional reporter strain. HTS hits were purchased directly from Life Chemicals, Inc. DMSO stock solutions (10 mM) of each compound were prepared and stored at −20° C. Serial dilutions (1:3) were prepared from the stock solutions in DMSO, and 2 μL aliquots of the resulting dilutions were added to the wells of black 96-well microtiter plates (Corning). Overnight cultures of the S. aureus reporter strain (2 mL) were grown at 37° C. with shaking at 200 rpm. Cultures were diluted 1:50 (v/v) into fresh BHI medium, and 198 μL of this diluted culture were added to each well containing compound, for a total volume of 200 μL per well. All plates contained a vehicle control consisting of 2 μL of DMSO and 198 μL of culture and a media control consisting of 200 μL BHI. Plates were incubated for ˜24 hours at 37° C. with shaking at 200 rpm. Fluorescence (excitation 510, emission 544) and OD600 measurements were acquired with a PerkinElmer EnVision microtiter plate reader running Envision Manager software. Background fluorescence from BHI control was subtracted from raw fluorescence reads, OD600 corrected, and finally normalized to vehicle control. Dose-response curves and IC50 values were generated using 3-parameter non-linear regression analysis for compound inhibition using GraphPad Prism software (v. 9). All compounds were tested in technical triplicate with at least 3 biological replicates.

Row | Compound | calcein leakage with agr inhibitors at equivalent concentration (WT S. aureus (RN6390b)) | IC50 (agr) [µM] | also measured
1 | CCCC(=O)N[C@H]1CCOC1=O [BHL, N-butyryl-Lhomoserine lactone] |  |  | effect on vesicle lysis / dye leakage (fluorescence over 12 hr) [1]: earlier onset of dye leakage; also recorded: facilitate vesicle lysis
2 | CC[C@H](C)[C@H](N)C(=O)N[C@@H](CC(N)=O)C(=O)N[C@H]1CSC(=O)[C@H](CC(C)C)NC(=O)[C@H](CC(C)C)NC(=O)[C@H](Cc2ccccc2)NC(=O)[C@H](C)NC1=O [Compound 1, AIP III D4A] (H-INCAFLL; thioester 3-C) | completely prevent calcein leakage |  | effect on vesicle lysis (calcein fluorescence over 12 hr) (WT S. aureus (RN6390b); 100 nM 1, 10 μM 5, 20 μM 6, 10 μM AIP): wholly abrogated vesicle lysis; also recorded: repress vesicle lysis; effect of increasing concentration on onset of calcein leakage (WT S. aureus (RN6390b); 3-fold dilutions starting at 100 nM): increases in the times required for the onset of calcein leakage; impact on cell growth (S. aureus): minimal impact on cell growth
3 | CCCc1cc(C(=O)O)nc2c(-c3ccccc3)c(C)nn12 [Compound 12] |  | 2.58 | 
4 | Cc1nn2c(C3CC3)cc(C(=O)O)nc2c1-c1ccccc1 [Compound 13] |  | 3.35 | 
5 | Cc1nn2c(C3CCC3)cc(C(=O)O)nc2c1-c1ccccc1 [Compound 14] |  | 0.98 | 
6 | CCc1cc(C(=O)O)nc2c(-c3ccccc3)c(C)nn12 [Compound 15] |  | 7.67 | 
7 | Cc1nn2c(C3CCCC3)cc(C(=O)O)nc2c1-c1ccccc1 [Compound 16] |  | 0.84 | 
8 | Cc1nn2c(C(C)(C)C)cc(C(=O)O)nc2c1-c1ccccc1 [Compound 17] |  | 0.48 | 
9 | CCCCCCCCCC(=O)CC(=O)N[C@H]1CCOC1=O [OdDHL, N-(3-oxo-dodecanoyl)-L-homoserine lactone] |  |  | effect on vesicle lysis / dye leakage (fluorescence over 12 hr) [1]: no observable influence on levels of fluorescence; also recorded: no observable effect
10 | CCCCCCCc1[nH]c2ccccc2c(=O)c1O [PQS, Pseudomonas quinolone signal] |  |  | effect on vesicle lysis / dye leakage (fluorescence over 12 hr) [1]: no observable influence on levels of fluorescence; also recorded: no observable effect
11 | AIP III D4A amide [Compound 2] | delayed response |  | 
12 | tr. AIP III D2A [Compound 3] | completely prevent calcein leakage |  | 
13 | tr. AIP III D2A amide [Compound 4] | delayed response |  | 
